According to PMC7280029, “Development of FRET‐based high‐throughput screening for viral RNase III inhibitors” (Molecular Plant Pathology, 2020):

What was measured:
[1] = target: CSR3 (class 1 RNase III of Sweet potato chlorotic stunt virus) (Sweet potato chlorotic stunt virus, UniProt Q8JJW8); assay: biochemical; assay type: biochemical; conditions: for DSS (drug-sensitivity score): dose-response 1.25 nM to 50 µM, Breeze software
Experimental: A dose–response assay was carried out with the top 109 compounds (concentration range 1.25 nM to 50 µM). The data were analysed with Breeze software, which generates dose–response curves and calculates the half‐maximal inhibitory concentration (IC50) and drug‐sensitivity score (DSS) for every compound. Considering that IC50 alone cannot comprehensively evaluate the drug sensitivity of the dose–response model in HTS assay, DSS was developed by Yadav et al. (2014) as a systematic algorithmic solution that integrated five factors: IC50, the slope at IC50, minimum activity level, and top and bottom asymptotes of dose–response model. The DSS values ranged from 0 to 19.2. The three structures differ (Figure 6, starred compounds). […] Table S1 lists the 109 compounds from the dose–response screens for CSR3, including information for compound identity, IC50, DSS, and dose–response curves.
For the HTS assay, plates (10 µM compound in each well) were prepared with an Echo liquid handler (Labcyte) at the FIMM (Institute for Molecular Medicine Finland) High‐Throughput Biomedicine unit. CSR3 and annealed siRNA were diluted to […] and 750 nM, respectively, in reaction buffer (50 mM Tris‐HCl, 125 mM NaCl, 25 mM MgCl2, pH 8.0). CSR3 solutions were dispensed into the wells of plates (10 µl CSR3 per well). Plates were incubated at room temperature for 15 min with shaking (450 rpm). Subsequently, 10 µl substrate was dispensed per well. […] The dose–response assay with six compound concentrations (range, 1.25 nM to 50 µM) was carried out with the same conditions. Plates were sealed, centrifuged briefly, and then, immediately analysed with a PHERAstar FS (BMG Labtech) with a fluorescence‐intensity optic module (excitation at 485 ± 6 nm, detection at 520 ± 5 nm) for 12 cycles (c.17 min total) at 37 °C. All dispensing was done using the BioTek MultiFlo FX. All screening plates contained positive‐control wells (lacking CSR3) and negative‐control wells (25 nl dimethyl sulphoxide, vehicle), which were used as standards to calculate the PI of compounds.
The PI of each compound for CSR3 was calculated according to Equation 2. A PI threshold of 30% was used as the cut‐off value for one concentration of HTS. Furthermore, the dose–response curves of PI in function of compound concentration were evaluated with DSS according to Yadav et al. (2014).(2) PI=1001-Ss-Sc+/SC--Sc+% where Sc + is the mean of the slope of the positive control, Sc − is the mean of the slope of the negative control, and Ss is the mean of the slope of samples.

[2] = tested on: Cytokine/receptor Binary Complex of humans (4KC3_B); set-up: method as in PubChem database; conditions: ref PubChem database; cited from earlier work
[3] = tested on: CSR3; assay: CSR3 kinetics with labelled siRNA substrate (Michaelis-Menten); assay type: biochemical, Sweet potato chlorotic stunt virus; conditions: 50 nM CSR3, 50-800 nM labelled siRNA
Experimental: To monitor the kinetics of CSR3 endoribonuclease activity, two‐fold dilutions (yielding 50–800 nM) of the labelled siRNA substrate were tested with 50 nM CSR3. As expected, start points of raw fluorescence increased with the FRET‐siRNA concentration (Figure 4a). Moreover, the slope of the raw fluorescence between all neighbouring detection cycles was calculated for all cycle numbers. […] Finally, the maximal slope for every labelled siRNA concentration was used to determine the catalytic rate of CSR3.
The HTS assay was designed to maximize siRNA cleavage by CSR3. We used a donor–quencher fluorogenic siRNA as the substrate for CSR3. […] To assess CSR3 activity, five labelled siRNA concentrations (50–800 nM) were used with 50 nM CSR3. To test the reproducibility and precision of the assay, full plates containing only negative (50 nM CSR3) and positive reactions (lacking CSR3) were tested with 375 nM labelled siRNA. […]
The kinetic constant (K d) for CSR3 was calculated using the three‐parameter Michaelis–Menten model (MM.3) included in the R package dcr (Ritz et al., 2015). The statistical significance of differences between values was assessed with one‐way ANOVA using the aov function in the R package.

[4] = tested on: HIV-1 reverse transcriptase; set-up: method as in PubChem database; conditions: ref PubChem database; cited from earlier work
[5] = tested on: human heat shock 70 kDa protein; set-up: method as in PubChem database; conditions: ref PubChem database; cited from earlier work

CSR3 (class 1 RNase III of Sweet potato chlorotic stunt virus), sequence (Q8JJW8 entry or part of it): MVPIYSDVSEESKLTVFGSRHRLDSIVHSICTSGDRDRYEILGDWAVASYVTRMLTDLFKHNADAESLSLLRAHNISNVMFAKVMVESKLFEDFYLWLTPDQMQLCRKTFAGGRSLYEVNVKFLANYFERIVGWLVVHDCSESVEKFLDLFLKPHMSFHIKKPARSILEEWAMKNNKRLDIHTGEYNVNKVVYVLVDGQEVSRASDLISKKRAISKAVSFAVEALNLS

Molecule	IC50 [1] [nM]	DSS (drug-sensitivity score) [1]	other results
CN1CCc2cccc3c2[C@H]1Cc1ccc(O)c(O)c1-3 [FIMM000096]	2900	12.7	–
Cc1ccc([C@@H]2Nc3ccc(C(=O)O)cc3[C@@H]3C=CC[C@@H]32)cc1 [FIMM031755]	1270	–	activity in inhibitor screening assay [2]: effective at micromolar concentrations
c1cnc2[nH]c(Nc3ccc(Nc4nc5cccnc5[nH]4)cc3)nc2c1 [FIMM092170]	2840	12.9	–
CCn1c(S)nnc1CCNC(=O)c1cccs1 [FIMM099662]	3070	11.7	–
CN1C(=O)C(=CNc2ccc(F)cc2)C(=O)N(C)C1=O [FIMM059523]	> 50000	0	–
CC(C)(C)C1CCc2c(sc(NC(=O)C3CC=CCC3C(=O)O)c2C(N)=O)C1 (stereo not drawn) [FIMM104970]	–	0	–
COc1cc(C=C2C(=O)NC(=S)NC2=O)ccc1OCc1ccccc1[N+](=O)[O-] [FIMM101864]	3850	11.2	–
CCn1c(C)nc2cc(S(N)(=O)=O)ccc21 [FIMM028155]	782	17.6	–
labelled siRNA: 22 bp siRNA with two-nucleotide 3' overhang, FAM reporter and BHQ1 quencher on the sense strand; CSR3 substrate (sense CGUAGUGGAAGUGGGAGAGGTC; antisense CCUCUCCCACUUCCACUACGTG; FAM reporter and BHQ1 quencher on sense strand, positions not given here)	–	–	Km ([3]; Michaelis-Menten model MM.3): 229 nM; Vmax ([3]; maximal slope): 22.47
O=S(=O)(O)c1cccc2cc(O)ccc12 [FIMM072577]	699	18.3	–
O=C1c2c(O)ccc(O)c2C(=O)c2c(NCCNCCO)ccc(NCCNCCO)c21 [FIMM000490]	1810	14.9	–
Cc1ccc(C)c(C(=O)CSc2nnc[nH]2)c1 [FIMM027745]	647	19.2	activity in inhibitor screen [4]: inactive; activity in inhibitor screen [5]: inactive
O=C(O)c1ccc(C2Nc3c(Br)cccc3C3C=CCC32)cc1 (stereo not drawn) [FIMM022230]	1860	13.8	–
